US7902182B2, “HIV integrase inhibitors” (priority 2005, dated 2011)

The compounds below were run against T1, HIV-integrase (Human immunodeficiency virus type 1 group M subtype B, UniProt P12497) (assay: HIV-Integrase Inhibition Activity (SPA bead strand transfer assay)). Conditions: recombinant integrase, biotin labeled substrate DNA on SPA beads, P33 labeled target DNA; read-out: Activity (IC50 against HIV-integrase).
T1 construct: Recombinant integrase (0.26 ng) was incubated with the beads
Type: biochemical
Method: HIV-Integrase InhibitionActivity. To evaluate in-vitro activity against HIV-integrase, 5 pmole of biotin labeled substrate DNA was bound to 100 μg of Streptavidin coated PVT SPA beads (Amersham Pharmacia Biotech). Recombinant integrase (0.26 ng) was incubated with the beads for 90 min at 37° C. Unbound enzyme was removed by washing the complex followed by addition of inhibitors and 0.1 fmol of P33 labeled target DNA. The reaction was stopped by adding EDTA to a final concentration of 10 mM. Samples were counted in TopCountNXT (Packard) and the CPM was used as a measure of integration. The reaction condition was as described in A. Engelman and R. Craigie, J. Virol. 69, 5908-5911 (1995). The sequences of substrate and target DNA were described in Nucleic Acid Research 22, 1121-1122 (1994).
Activity equal to A refers to a compound having IC50=0.002 to 0.10 μM while B and C denote compounds having IC50=0.1 to 1.0 μM and IC50≧1.0 μM respectively.

| SMILES | IC50 |
| --- | --- |
| CCN1CCN(S(=O)(=O)c2cc(F)ccc2CNC(=O)c2nc3n(c(=O)c2O)CCOC32CCOCC2)CC1 [Example 5] | 2 to 100 nM |
| O=C(NCc1ccc(F)cc1S(=O)(=O)N1CCOCC1)c1nc2n(c(=O)c1O)CCOC21CCOCC1 [Example 11] | 2 to 100 nM |
| CC1(C)OCCn2c1nc(C(=O)NCc1ccc(F)cc1S(=O)(=O)N1CCCCC1)c(O)c2=O [Example 30] | 2 to 100 nM |
| O=C(NCc1ccc(F)cc1S(=O)(=O)N1CCN(C(=O)N2CCOCC2)CC1)c1nc2n(c(=O)c1O)CCOC21CCOCC1 [Example 9] | 2 to 100 nM |
| CC1(C)OCCn2c1nc(C(=O)NCc1ccc(F)cc1S(=O)(=O)N1CCCC1)c(O)c2=O [Example 33] | 2 to 100 nM |
| CC1(C)OCCn2c1nc(C(=O)NCc1ccc(F)cc1S(=O)(=O)N1CCC3(CC1)OCCO3)c(O)c2=O [Example 31] | 2 to 100 nM |
| COC(=O)N1CCN(S(=O)(=O)c2cc(F)ccc2CNC(=O)c2nc3n(c(=O)c2O)CCOC32CCOCC2)CC1 [Example 3] | 2 to 100 nM |
| C[C@@H]1CN(S(=O)(=O)c2cc(F)ccc2CNC(=O)c2nc3n(c(=O)c2O)CCOC3(C)C)CCN1 [Example 41] | 2 to 100 nM |
| CC1(C)OCCn2c1nc(C(=O)NCc1ccc(F)cc1S(=O)(=O)N1CCCCCC1)c(O)c2=O [Example 28] | 2 to 100 nM |
| CC1(C)OCCn2c1nc(C(=O)NCc1ccc(F)cc1S(=O)(=O)N1CCN(C(=O)N3CCOCC3)CC1)c(O)c2=O [Example 17] | 2 to 100 nM |
| C[C@@H]1CN(S(=O)(=O)c2cc(F)ccc2CNC(=O)c2nc3n(c(=O)c2O)CCOC3(C)C)CCN1C [Example 42] | 2 to 100 nM |
| C[C@@H]1CN(S(=O)(=O)c2cc(F)ccc2CNC(=O)c2nc3n(c(=O)c2O)CCOC3(C)C)CCN1C(=O)OC(C)(C)C [Example 37] | 2 to 100 nM |
| COC(=O)N1CCN(S(=O)(=O)c2cc(F)ccc2CNC(=O)c2nc3n(c(=O)c2O)CCOC3(C)C)CC1 [Example 18] | 2 to 100 nM |
| CN1CCN(S(=O)(=O)c2cc(F)ccc2CNC(=O)c2nc3n(c(=O)c2O)CCOC3(C)C)CC1 [Example 15] | 2 to 100 nM |
| CC1(C)OCCn2c1nc(C(=O)NCc1ccc(F)cc1S(=O)(=O)N1CCOC(CN3CCCC3)C1)c(O)c2=O (stereo not shown) [Example 39] | 2 to 100 nM |
| CC(=O)N1CCN(S(=O)(=O)c2cc(F)ccc2CNC(=O)c2nc3n(c(=O)c2O)CCOC3(C)C)CC1 [Example 20] | 2 to 100 nM |
| CN(C)[C@@H]1COC[C@H]1N1CCN(S(=O)(=O)c2cc(F)ccc2CNC(=O)c2nc3n(c(=O)c2O)CCOC3(C)C)CC1 [Example 40] | 2 to 100 nM |
| O=C(NCc1ccc(F)cc1S(=O)(=O)N1CCOCC1)c1nc2n(c(=O)c1O)CCCC21CCCC1 [Example 13] | 2 to 100 nM |
| CC1(C)OCCn2c1nc(C(=O)NCc1ccc(F)cc1S(=O)(=O)N1CCC(O)CC1)c(O)c2=O [Example 25] | 2 to 100 nM |
| CC1CN(S(=O)(=O)c2cc(F)ccc2CNC(=O)c2nc3n(c(=O)c2O)CCOC3(C)C)CC(C)N1 (stereo not shown) [Example 35] | 2 to 100 nM |

| SMILES | IC50 |
| --- | --- |
| CC(=O)N1CCN(S(=O)(=O)c2cc(F)ccc2CNC(=O)c2nc3n(c(=O)c2O)CCOC32CCOCC2)CC1 [Example 10] | 2 to 100 nM |
| CC1(C)OCCn2c1nc(C(=O)NCc1ccc(F)cc1S(=O)(=O)N1CCN(S(C)(=O)=O)CC1)c(O)c2=O [Example 16] | 2 to 100 nM |
| CN(C)C(=O)N1CCN(S(=O)(=O)c2cc(F)ccc2CNC(=O)c2nc3n(c(=O)c2O)CCOC3(C)C)CC1 [Example 19] | 2 to 100 nM |
| CS[C@@H]1COC[C@H]1N1CCN(S(=O)(=O)c2cc(F)ccc2CNC(=O)c2nc3n(c(=O)c2O)CCOC3(C)C)CC1 [Example 38] | 2 to 100 nM |
| CC1CN(S(=O)(=O)c2cc(F)ccc2CNC(=O)c2nc3n(c(=O)c2O)CCOC3(C)C)CC(C)N1C (stereo not shown) [Example 36] | 2 to 100 nM |
| O=C(NCc1ccc(F)cc1S(=O)(=O)N1CCOCC1)c1nc2n(c(=O)c1O)CCOC21CCCC1 [Example 12] | 2 to 100 nM |
| O=C(NCc1ccc(F)cc1S(=O)(=O)N1CCNCC1)c1nc2n(c(=O)c1O)CCOC21CCCC1 [Example 22] | 2 to 100 nM |
| CC(=O)N(C)C1CCN(S(=O)(=O)c2cc(F)ccc2CNC(=O)c2nc3n(c(=O)c2O)CCOC3(C)C)C1 (stereo not shown) [Example 34] | 2 to 100 nM |
| CN1CCN(S(=O)(=O)c2cc(F)ccc2CNC(=O)c2nc3n(c(=O)c2O)CCOC32CCC2)CC1 [Example 24] | 2 to 100 nM |
| CN1CCN(S(=O)(=O)c2cc(F)ccc2CNC(=O)c2nc3n(c(=O)c2O)CCOC32CCCC2)CC1 [Example 23] | 2 to 100 nM |
| CC1(C)OCCn2c1nc(C(=O)NCc1ccc(F)cc1S(=O)(=O)N1CCOCC1)c(O)c2=O [Example 27] | 2 to 100 nM |
| CN(C)C(=O)N1CCN(S(=O)(=O)c2cc(F)ccc2CNC(=O)c2nc3n(c(=O)c2O)CCOC32CCOCC2)CC1 [Example 7] | 2 to 100 nM |
| CN1CCN(S(=O)(=O)c2cc(F)ccc2CNC(=O)c2nc3n(c(=O)c2O)CCOC32CCOCC2)CC1 [Example 2] | 2 to 100 nM |
| CN(C)S(=O)(=O)N1CCN(S(=O)(=O)c2cc(F)ccc2CNC(=O)c2nc3n(c(=O)c2O)CCOC3(C)C)CC1 [Example 21] | 2 to 100 nM |
| CC1(C)OCCn2c1nc(C(=O)NCc1ccc(F)cc1S(=O)(=O)N1CCC3(CCNC3=O)CC1)c(O)c2=O [Example 32] | 2 to 100 nM |
| CC1(C)OCCn2c1nc(C(=O)NCc1ccc(F)cc1S(=O)(=O)N1CCC(O)C1)c(O)c2=O (stereo not shown) [Example 29] | 2 to 100 nM |
| CN(C)S(=O)(=O)N1CCN(S(=O)(=O)c2cc(F)ccc2CNC(=O)c2nc3n(c(=O)c2O)CCOC32CCOCC2)CC1 [Example 8] | 2 to 100 nM |
| CC1(C)OCCn2c1nc(C(=O)NCc1ccc(F)cc1S(=O)(=O)N1CCNCC1)c(O)c2=O [Example 14] | 2 to 100 nM |
| O=C(NCc1ccc(F)cc1S(=O)(=O)N1CCNCC1)c1nc2n(c(=O)c1O)CCOC21CCOCC1 [Example 1] | 2 to 100 nM |
| CC1(C)OCCn2c1nc(C(=O)NCc1ccc(F)cc1S(=O)(=O)N1CCC1)c(O)c2=O [Example 26] | 2 to 100 nM |
